Tests used:
[1] = molecular target: human constitutive proteasome (Beta5) (Homo sapiens (Human), UniProt P28074); assay: Determination of Beta5 activity (fluorescence intensity assay, Suc-LLVY-AMC); type: biochemical; settings: purified human constitutive proteasome 1.25 nM, Suc-LLVY-AMC 40 μM
Method: Determination of Beta5 Activity:
Measurement of Beta5 inhibition is performed in 384 well format based on fluorescence intensity assay.
(§1) Purified human constitutive proteasome (1.25 nM) and serial diluted compounds in DMSO (range of concentrations from 30 μM to […]) or controls are incubated for 20 minutes at 25° C. in assay buffer containing 50 mM Tris pH 7.4, 0.03% SDS, 1 mM EDTA and 1% DMSO. The reaction is initiated by the addition of the fluorogenic peptide substrate, Suc-LLVY-AMC (Bachem 1-1395), at a concentration of 40 μM. After 60 minutes of incubation at 37° C., fluorescence intensity is measured at λex=350 nm and λem=450 nm with a fluorescence reader (Perkin Elmer Envision reader or equivalent).

[2] = molecular target: human immunoproteasome (LMP7) (Homo sapiens (Human), UniProt P28062); assay: Determination of LMP7 activity (fluorescence intensity assay, Suc-LLVY-AMC); type: biochemical; settings: for Selectivity LMP7 vs Beta5: LMP7 versus Beta5; for IC50: purified human immunoproteasome 0.25 nM, Suc-LLVY-AMC 40 μM
Method: Determination of LMP7 Activity:
Measurement of LMP7 inhibition is performed in 384 well format based on fluorescence intensity assay.
as §1, with “immunoproteasome (0.25” for “constitutive proteasome (1.25”

Row | Compound | IC50 [1] [µM] | Selectivity LMP7 vs Beta5 [2] | IC50 [2] [µM]
1 | N#Cc1ccccc1CC(=O)N[C@@H](C[C@@H]1COc2ccccc21)B(O)O [Compound No. 105, [(1R)-1-[[2-(2-cyanophenyl)acetyl]amino]-2-[(3S)-2,3-dihydrobenzofuran-3-yl]ethyl]boronic acid] | 0.5 to 5 | +++++ (Selectivity ≥ 100) | < 0.05
2 | O=C(Cc1ccc(-c2ccccc2)cc1)N[C@@H](Cc1coc2ccccc12)B(O)O [Compound No. 67, [(1R)-2-(benzofuran-3-yl)-1-[[2-(4-phenylphenyl)acetyl]amino]ethyl]-boronic acid] | 0.5 to 5 | ++ (10 ≤ Selectivity < 50) | < 0.05
3 | O=C(Cc1ccccc1)N[C@@H](Cc1coc2c(Cl)cccc12)B(O)O [Compound No. 85, [(1R)-2-(7-chlorobenzofuran-3-yl)-1-[(2-phenylacetyl)amino]ethyl]-boronic acid] | 0.5 to 5 | +++++ (Selectivity ≥ 100) | < 0.05
4 | Cc1cccc2c(C[C@H](NC(=O)[C@@H](CO)c3ccccc3)B(O)O)coc12 [Compound No. 83, [(1R)-1-[[(2R)-3-hydroxy-2-phenyl-propanoyl]amino]-2-(7-methylbenzofuran-3-yl)ethyl]boronic acid] | 0.5 to 5 | +++++ (Selectivity ≥ 100) | < 0.05
5 | Cc1cccc2c(C[C@@H](NC(=O)[C@H](CO)c3ccccc3)B(O)O)coc12 [Compound No. 80, [(1S)-1-[[(2S)-3-hydroxy-2-phenyl-propanoyl]amino]-2-(7-methylbenzofuran-3-yl)ethyl]boronic acid] | > 5 | +++++ (Selectivity ≥ 100) | 0.05 to 0.5
6 | O=C(Cc1c(Cl)cccc1Cl)N[C@@H](Cc1coc2ccccc12)B(O)O [Compound No. 25, [(1R)-2-(benzofuran-3-yl)-1-[[2-(2,6-dichlorophenyl)acetyl]amino]-ethyl]boronic acid] | 0.5 to 5 | ++++ (70 ≤ Selectivity < 100) | < 0.05

More lines, now with the values ahead:

Row | IC50 [1] [µM] | Selectivity LMP7 vs Beta5 [2] | IC50 [2] [µM] | Compound
7 | 0.05 to 0.5 | ++++ (70 ≤ Selectivity < 100) | < 0.05 | COc1ccc(CC(=O)N[C@@H](Cc2coc3ccccc23)B(O)O)cc1 [Compound No. 10, [(1R)-2-(benzofuran-3-yl)-1-[[2-(4-methoxyphenyl)acetyl]amino]ethyl]-boronic acid]
8 | 0.5 to 5 | +++++ (Selectivity ≥ 100) | < 0.05 | O=C(N[C@H](Cc1coc2ccccc12)B(O)O)[C@@H](CO)c1ccccc1 [Compound No. 62, [(1S)-2-(benzofuran-3-yl)-1-[[(2R)-3-hydroxy-2-phenyl-propanoyl]-amino]ethyl]boronic acid]
9 | 0.05 to 0.5 | ++++ (70 ≤ Selectivity < 100) | < 0.05 | N#Cc1ccc(CC(=O)N[C@@H](Cc2coc3ccccc23)B(O)O)cc1 [Compound No. 9, [(1R)-2-(benzofuran-3-yl)-1-[[2-(4-cyanophenyl)acetyl]amino]ethyl]-boronic acid]
10 | 0.05 to 0.5 | +++++ (Selectivity ≥ 100) | < 0.05 | O=C(Cc1ccccc1OC1CCOCC1)N[C@@H](Cc1coc2ccccc12)B(O)O [Compound No. 54, [(1R)-2-(benzofuran-3-yl)-1-[[2-(2-tetrahydropyran-4-yloxyphenyl)-acetyl]amino]ethyl]boronic acid]
11 | 0.05 to 0.5 | ++++ (70 ≤ Selectivity < 100) | < 0.05 | O=C(Cc1cc(F)c(F)c(F)c1)N[C@@H](Cc1coc2ccccc12)B(O)O [Compound No. 22, [(1R)-2-(benzofuran-3-yl)-1-[[2-(3,4,5-trifluorophenyl)acetyl]amino]-ethyl]boronic acid]
12 | 0.05 to 0.5 | +++++ (Selectivity ≥ 100) | < 0.05 | O=C(Cc1ccc(OCCCO)cc1)N[C@@H](Cc1coc2ccccc12)B(O)O [Compound No. 40, [(1R)-2-(benzofuran-3-yl)-1-[[2-[4-(3-hydroxypropoxy)phenyl]acetyl]-amino]ethyl]boronic acid]

From patent US10294246B2, “Substituted boronic acids and boronate esters as immunoproteasome inhibitors” (MERCK PATENT GMBH, priority 2014, dated 2019)
